Measurements: a melting point compilation (Tetko et al.; mined from patent text by program, amines drawn as free bases though some values may be those of a salt)

SMILES	melting point
Cc1oc2nc(C(=O)O)nc(OCCN(C)C)c2c1C	179 to 180 °C
Cc1cc([N+](=O)[O-])c(O)c([N+](=O)[O-])c1C	120 to 122 °C
COC(=O)c1ccc2ccc(OC(=S)N(C)C)cc2c1	124 to 126 °C
CC(C)C(=O)Nc1cc([N+](=O)[O-])c(Sc2cccc3cnccc23)cc1N	219 to 221 °C
COC(=O)C(=O)c1cc2cc(C#N)ccc2o1	196 to 199 °C
Cc1ccc(-c2nc(C)c(C)c(Cl)n2)cc1	165 °C
Brc1ccc(-c2csc(Br)n2)cc1	117 to 119 °C
CCCCCCCCCCCC(=O)Nc1ccc(NC(=O)CCNC(=O)C2OC(C)(C)OCC2(C)C)cc1 (stereo unspecified)	144 to 145 °C
Nc1cc(-n2cc(C(=O)O)c(=O)c3cc(F)c(NCC(O)C(F)(F)F)c(Cl)c32)c(F)cc1F (stereo unspecified)	134 to 138 °C
NS(=O)(=O)OCCOc1cccc(-n2ccnc2)c1	149 to 150 °C
CCOC(=O)c1sc(SC(C)C)c2c1CCC(NC(C)=O)C2=O (stereo unspecified)	170 to 171 °C
N#CCCc1coc2ccc(Br)cc12	56 to 58 °C
Cc1sc(N)c(C(=O)c2ccsc2)c1C	122 to 123 °C
Cc1nn(C)c2[nH]c(=O)c3c(c12)CCCC3	> 300 °C
O=C1CCCN1CCCC(=O)N1CCC(C2c3ncc(Br)cc3CCc3cc(Cl)cc(Br)c32)CC1 (single isomer, unassigned; (+))	127 to 128 °C
CC(C)N(CCC(C(N)=O)(c1ccccc1)C1CCCCN1)C(C)C (stereo unspecified)	107 to 108 °C
COc1ccc(S(=O)(=O)Nc2cccc(C)c2N)cc1	177 to 178 °C
CS(=O)(=O)c1ccccc1OC(F)(F)F	44 to 46 °C
CN(C)c1nc2cc(N)ccn2n1	236 to 238 °C
O=C(NCC12CC3CC(CC(C3)C1)C2)c1c(Cl)ccc2nc(N3C[C@@H]4C(C(=O)O)[C@@H]4C3)ccc12 (stereo partly specified)	175 to 180 °C
CCc1nc(OC)c(NC(=O)N2CCN(c3cccc(O)c3)CC2)cc1C	168 to 170 °C
COc1ccc(Cc2ccc3[nH]c(=S)[nH]c3c2)c(O)c1	248 to 250 °C
CCOCc1nc2c(N)nc3cccnc3c2n1NC(C)C	150 to 152 °C
O=C1Cc2cc(CCCl)ccc2N1	168 to 170 °C
CCNc1cncc(C(=NCCc2ccccc2Cl)NC#N)c1	168 °C
COc1cc(C=O)cc(-c2cc3c(cc2F)c(=O)c(C(=O)O)cn3C2CC2)c1OC	> 230 °C
CCC(CC)n1nnc2c(Nc3c(Br)cc(OC)cc3OC)nc(C)cc21	166 to 167 °C

SMILES	melting point
O=C(CC12CC3CC(CC(C3)C1)C2)Nc1cccc2[nH]ccc12	211 to 213 °C
O=C(O)C(CCCCCCCCCCCC(C(=O)O)C1CC1)C1CC1 (stereo unspecified)	115 to 118 °C
CNC(=O)C1=CC(CF)(CF)Oc2ccc([N+](=O)[O-])cc21	178 to 179 °C
CNC(=S)C1(c2ccc(Cl)c(Cl)c2)CCCCS1 (stereo unspecified)	116 to 117 °C
Cc1nn(C)c2nc(N(CC(C)C)CC3CC3)c(CN(Cc3cc(C(F)(F)F)cc(C(F)(F)F)c3)c3nnn(C)n3)cc12	99 to 101 °C
CCn1cc(C(=O)O)c(=O)cc1-c1cc(OC)c(OC)c(OC)c1	200 to 201 °C
COc1ccc(CS[C@@H]2CN[C@H](C(=O)O)C2)cc1	198 to 200 °C
CC(=O)Nc1ccc(OC(F)F)c(F)c1	112 to 113 °C
CC(C)CNS(=O)(=O)c1ccccc1CCOS(C)(=O)=O	106 to 108 °C
CSc1cncc(Oc2ccc(Cl)c(Cl)c2)c1	55 °C
O=[N+]([O-])c1ccc(Cl)c(F)c1O	73 °C
COc1c(Cl)ccc(C#N)c1F	94 to 97 °C
CSc1ccc(C=CC(=O)c2cccc([N+](=O)[O-])c2)cc1	150 °C
COC(=O)c1cc(Cl)c(NC(C)=O)cc1OC1C=CCCC1 (stereo unspecified)	100 to 102 °C
COC(=O)c1ccc2c(c(C)nn2C)c1C1=NC(C)(C(C)C)C(=O)N1 (stereo unspecified)	130 to 150 °C
O=C(C(=O)c1ccc(F)cc1)c1ccncc1	84 to 86 °C
O=C1C(=Cc2ccc(F)cc2)C2C=CC1CC2 (stereo unspecified)	85 to 86 °C
COC(=O)c1ccc(OCCCCl)cc1	56.5 to 59 °C
CC(C)c1cc(Oc2c(Cl)cc(C(F)(F)F)cc2Cl)n[nH]1	98 to 101 °C
CC1(C)CC(=C(c2ccc(O)cc2)c2ccc(S(C)(=O)=O)cc2)CC(C)(C)C1	149 to 150 °C
CC(=O)NC[C@H]1CN(c2ccc(-c3noc(C)n3)c(F)c2)C(=O)O1	177 to 179 °C
CCCSC1=Nc2ccccc2SN1	168 to 170 °C
CC(=O)C1CC=C2C(CCC3=Cc4c(cnn4-c4ccc(F)cc4)CC32C)C1C(C)=O (stereo unspecified)	157 to 159 °C
CC(C)(C)NC(=O)c1ccc(Br)cc1	126 to 128 °C
CC(C)C[C@H](NC(=O)C(S)[C@@H](N)Cc1ccccc1)C(=O)O (stereo partly specified)	96 to 105 °C
CCCCCCCCCCCC(=O)N[C@H](CC(=O)c1ccc(C)cc1)C(=O)OCC	60 to 60.5 °C

Other lines, results leading:

melting point	SMILES
139 to 141 °C	CN1CCC(C2Cc3ccccc3C(=O)N2)CC1 (stereo unspecified)
265 to 266 °C	O=C(CC1c2ccccc2Sc2ccccc21)Nc1ccc(C(=O)O)cc1
136 to 137 °C	CN(C)Cc1cc(-c2ccccc2)c(O)c(-c2ccccc2)c1
227 to 228 °C	O=C(O)c1cc(=O)cc(C=Cc2ccccc2)o1
52.5 °C	Clc1cccc(Cc2ccc(OCCCn3cccn3)c(Cl)c2)c1
62 to 64 °C	O=S(=O)(Nc1cccc(/C=C/c2ccccc2)c1)C(F)(F)F
193 to 198 °C	O=c1[nH]c2cc(Cl)cc(Cl)c2c(=O)n1Cc1ccccc1Cl
172 to 173 °C	CCc1ccc(-c2nc3ccccc3[nH]2)nc1
210 °C	O=C(O)CCc1cc(CCN2CCC(C(=O)c3ccc(F)cc3)CC2)cc2c1CCC(NS(=O)(=O)c1ccc(Cl)cc1)C2 (stereo unspecified)
157 to 158 °C	c1ccc(-c2nc3c4ccccc4ccn3n2)cc1
124 °C	O=C1c2ccccc2C(=O)N1CC1CN(Cc2ccccc2)CCN1Cc1ccccc1 (stereo unspecified)
91 to 93 °C	CC1CN(c2ccccc2)c2ccccc2N1 (stereo unspecified)
74 to 81 °C	CCOCCn1c(N2CCCN(CCC3(c4ccc(Cl)cc4)CCN(C(=O)c4cc(OC)c(OC)c(OC)c4)C3)CC2)nc2ccccc21 (stereo unspecified)
106 to 108 °C	CN(Cc1ccccc1)Cc1nc(-c2ccc(-c3ccccc3)cc2)c[nH]1
> 290 °C	CN1C(=O)C(c2c[nH]c3ccc(F)cc23)=C(c2c[nH]c3ccc(F)cc23)C1=O
140 to 143 °C	COc1ccc(C(=O)NC(=S)NCc2ccccc2C(N)=O)cc1
162 to 164 °C	COc1cc2c(cc1CCCCN(C)C)[nH]c1cc(-c3ccccc3Cl)c3c(c12)C(=O)NC3=O
268 to 270 °C	CC12CCC3c4ccc(C(=O)O)cc4CCC3C1CCC2C(=O)c1ccc(-c2ccccc2)cc1 (stereo unspecified)
137 to 138 °C	CCC(Oc1ccccc1)c1nnc(N2C(=O)N(C)CC2O)s1 (stereo unspecified)
162 to 163 °C	CCc1cnc2c(NC(=O)c3c(Cl)cccc3Cl)cccc2c1CC(=O)NCc1ccccn1
183 to 184 °C	O=C1OC(=O)c2c(Br)c(Sc3ccccc3)c(Sc3ccccc3)c(Br)c21
79 to 83 °C	C[C@@H](NC(=O)c1noc(-c2ccc(Cl)cc2)n1)[C@](O)(Cn1cncn1)c1ccc(F)cc1F
156 to 158 °C	CCCc1nn(C)c2c(=S)[nH]c(-c3ccccc3OCC)nc12
264 to 268 °C	CC(c1oc2ccccc2c(=O)c1-c1cccc(F)c1)n1nc(-c2cnc(N)nc2)c2c(N)ncnc21 (stereo unspecified)

melting point	SMILES
151 °C	C[C@H](NC(=O)OC(C)(C)C)C(=O)NC1CCC(Nc2cccc3c2C(=O)c2ccccc2C3=O)CC1 (stereo partly specified)
151 to 153 °C	COc1ccccc1N1CCN(CCCCOc2ccc(-c3cn4cccnc4n3)cc2)CC1
80 to 85 °C	Clc1cc(-c2ccccc2)nc(Cl)n1
219 °C	CC(C)(C)OC(=O)N1CCC(c2ncc(-c3cnc(-c4ccccc4)nc3)[nH]2)C1 (stereo unspecified)
247 to 249 °C	CC(C)(NC(=O)c1nc2ccc(NCCCN3CCC(OC(c4ccccc4)c4ccccc4)CC3)nn2n1)C(=O)O
276 to 278 °C	CCOCCn1cc2c(C3C(=O)Nc4ccc(Br)cc43)nc(NCCN3CCOCC3)nc2n1 (stereo unspecified)
156 to 157 °C	CCOc1cc(C(CC#N)N2C(=O)c3cccc([N+](=O)[O-])c3C2=O)ccc1OC (stereo unspecified)
142 to 143 °C	CN1Cc2ccccc2C(Oc2ccc([N+](=O)[O-])cc2)C1 (stereo unspecified)
186 °C	CCOc1ccc2c(c1)n(C1CCCCC1)c(=O)n2Cc1ccc(C(=O)NC(C)(C)C)cc1OC
96.5 to 98 °C	CN1CCC(NC2c3ccccc3Oc3ccccc32)CC1
255 to 260 °C	Cc1ccc(C)n1Nc1nnc(N2CCOCC2)c2ccccc12
32 °C	CC1(C)COC(C)(C)N1C(=O)OCCN(Cc1ccccc1)Cc1ccccc1
103 °C	Cc1oc2ccccc2c1C(=O)c1ccc(Cl)c(N)c1
270 °C	O=C1c2ccc(O)cc2C(=O)N1c1cccc(O)c1
188 °C	CCc1ccc(-c2ccc(C(=O)Nc3cc4ncc(CN5CCCC5)cc4cc3C)cc2)cc1
72 to 75 °C	O=C(CC1CC1)Nc1c(C(=O)c2ccccc2)[nH]c2cc(Cl)ccc12
176 °C	CCc1sc2c(c1S(=O)(=O)c1ccc(O)cc1)CC(Cc1ccccc1Cl)NC2 (stereo unspecified)
73 to 75 °C	Brc1ccc(OCCCCCN2CCN(c3nccs3)CC2)cc1
64 to 67 °C	CC(=Cc1cccc2ccccc12)[N+](=O)[O-]
167 to 168 °C	O=C(NS(=O)(=O)c1ccc(Oc2cccc(C(F)(F)F)c2)cc1)c1ccc(C(=O)NCCO)nc1
195 to 196 °C	COc1cc2c(cc1OCc1ccccc1)CCN(C(=O)c1cc(OC)c(OC)c(OC)c1)C2=O
202 to 204 °C	CC1(C)CC(=O)C2=C(C1)NC1=C(C(=O)CC(C)(C)C1)C2c1ccc(Cl)c(Sc2ccccc2)c1
92 to 93 °C	CCN1c2ncc(CSc3ccccc3)cc2C(=O)N(C)c2ccc(Cl)nc21
158 to 159 °C	CC(C)CC1(CCCCN2CCN(c3ccccn3)CC2)C(=O)Nc2ccccc21 (stereo unspecified)
